Entries after “also recorded” stand apart in the source; their conditions may differ.

The test system of data set [1] is Lactobacillus paracasei PCM 3039. Nature of the data set: Relative metabolic activity (AlamarBlue Cell Viability Assay). Format: cell-based. To be noted: 0.2 mg mL^−1 BP, relative to control group set at 100%. As to the method:
(§1) Lactobacillus paracasei PCM 3039 used in the experiments was purchased from the Polish Collection of Microorganisms (Wroclaw, Poland). The liquid cultures were composed of the minimal medium (10% solution of MRS Broth in Dulbecco’s Phosphate Buffered Saline (DPBS)), the inoculum, and a BP stock solution in water (initial concentration of BPs in each culture was 0.2 mg mL^−1). The bacterial inoculum was prepared from the broth cultures incubated overnight at 37 °C and washed twice with a sterile medium. The initial cell concentration in each culture was adjusted to 1–10^8 cfu mL^−1. The reference cultures without the addition of BPs (denoted as Ctrl) and the abiotic control samples with the addition of pure minimal medium instead of bacterial inoculum were carried out. All samples were incubated at 36 °C for 24 h with shaking (150 rpm). The effect of BPs on the properties of bacterial cells was also evaluated. The experiments performed include (i) modifications of the bacterial cell membrane permeability—the measurements were based on the Crystal Violet uptake by the cells, (ii) modifications of the bacterial cell wall hydrophobicity, based on the procedure described previously. Relative metabolic activity of cells treated with the compounds in question measured with the colorimetric test AlamarBlue® Cell Viability Assay.

Data set [2] shares this test system. The experiment in a line: Bacterial cell wall hydrophobicity (Congo Red binding). Format: cell-based. To be noted: 0.2 mg mL^−1 BP, 24 h; Ctrl 39.7 ± 8.0%. As to the method: as §1
Data set [3] has the same test system. Nature of the data set: Bacterial cell membrane permeability (Crystal Violet uptake). To be noted: 0.2 mg mL^−1 BP, 24 h; for Crystal Violet uptake (cell membrane permeability): Ctrl 33.4 ± 8.0%. The format is cell-based. As to the method: as §1
The nature of data set [4]: Sorption of bisphosphonates on hydroxyapatite in SBF. The format is physicochemical. The following applies: 0.7 mM, 30 mg HA; for affinity for HA (sorption), comparison in words: 10 mL SBF, 1, 2 and 48 h. As to the method: The first step was to investigate the effect of concentration on the RSD sorption on HA. The sorption capacity was examined for 4 concentrations (0.2, 0.5, 0.7 and 1 mM). 30 mg (+ /− 0.1 mg) of HA was weighed into polypropylene tubes. Subsequently, 10 mL of Simulated Body Fluid (SBF) (Table 2) containing BPs was poured into the tubes and placed in a shaker for 1 h, 2 h, and 48 h. Sorption of BP compounds on HA was measured using a UV–VIS spectrophotometer after 5 min of centrifugation (speed 4000 rpm). The compound concentrations were measured by Multiskan152 Sky Microplate Spectrophotometer (Thermo Fisher Scientific, Waltham, MA, USA). Next, for one concentration (0.7 mM), sorption studies of all BPs were conducted in the same manner as indicated above for RSD. The measurements were conducted in the range of 220–400 nm. The quantitative assessment was performed based on the calibration curve method at the absorbance maximum for each BP (absorption properties of the tested compounds are summarized in Table 3).

On the set-up of data set [5]: method as in PMID 18056045. To be noted: cited from earlier work.
Details of data set [6]: method as in PMID 32387834. To be noted: oral; cited from earlier work.
Data set [7] deals with Lactobacillus paracasei PCM 3039. Nature of the data set: Growth curve of L. paracasei (OD600). To be noted: 0.2 mg mL^−1 BP, 24 h. Format: cell-based. Here is the method: Lactobacillus paracasei PCM 3039 used in the experiments was purchased from the Polish Collection of Microorganisms (Wroclaw, Poland). The liquid cultures were composed of the minimal medium (10% solution of MRS Broth in Dulbecco’s Phosphate Buffered Saline (DPBS)), the inoculum, and a BP stock solution in water (initial concentration of BPs in each culture was 0.2 mg mL^−1). The bacterial inoculum was prepared from the broth cultures incubated overnight at 37 °C and washed twice with a sterile medium. The initial cell concentration in each culture was adjusted to 1–10^8 cfu mL^−1. The reference cultures without the addition of BPs (denoted as Ctrl) and the abiotic control samples with the addition of pure minimal medium instead of bacterial inoculum were carried out. All samples were incubated at 36 °C for 24 h with shaking (150 rpm). The growth of cells treated with BPs as well as control cells was monitored by measuring the optical density at the wavelength of 600 nm (OD600) as described by. The growth curve measurements were performed with a microplate reader Multiskan 152 Sky (Thermo Fisher Scientific, Waltham, MA, USA). 200 μL of the prepared bacterial cultures were transferred to the 96-well clear bottom sterile microplates wells. The plates were maintained at 37 °C with pulse shaking. The OD600 of each well was read every 10 min for 24 h.

Details of data set [8]: method as in PMID 34277124. The following applies: cited from earlier work.
The nature of data set [9]: Parallel artificial membrane permeability assay (PAMPA). The format is in vitro ADME. The following applies: 175 μM in PBS pH 7.4, 5 h; for PAMPA permeability, comparison in words: room temperature. Here is the method:
A parallel artificial membrane permeability assay (PAMPA) (Corning® Gentest™ Pre-coated PAMPA Plate System Gentest, USA) was prepared according to the recommended protocol. 96-well PAMPA plate was heated to room temperature for at least 30 min. Compound solutions were prepared in buffer (175 μM in PBS, pH 7.4). 300 μL of the BP solution was added to each donor plate well, and 200 μL of buffer (PBS, pH 7.4) was added to each acceptor plate. The filter plate (acceptor plate) was then placed on the receiver plate (donor plane) and the plate assembly was incubated at room temperature for 5 h. The compound amounts were measured by Multiskan152 SkyMicroplate Spectrophotometer (Thermo Fisher Scientific, Waltham, USA). The permeability of the BPs was calculated using the following formula (Eq. 1)1 Pe=-In[1-CA(t)/Cequilibrium]/A∗(1/VD+1/VA)∗t where Pe is the permeability (cm s^−1), Cequilibrium is [CD(t) × VD + CA(t) × VA]/(VD + VA), CD(t) indicates the compound concentration in donor well at time t (mM), CA(t) indicates the compound concentration in acceptor well at time t (mM), VD is the donor well volume (0.3 mL), VA is the acceptor well volume (0.2 mL), t is the incubation time (18000 s), and A is the effective filter area (0.3 cm^2).
A general note: In PAMPA a lipid-coated filter parts donor from acceptor wells.

Details of data set [10]: method as in PMID 26542347. To be noted: in vitro artificial intestinal membrane; cited from earlier work.
The subject of a further data set is Caco-2 cell monolayer. On the set-up: method as in PMID 26542347. To be noted: cited from earlier work.

On to `O=P(O)(O)C(Nc1cccc(Cl)n1)P(=O)(O)O` [BP9, (6-chloro-2-pyridinyl)amino-methylene-1,1-bisphosphonic acid], for which, in [1], the “AlamarBlue Reduction (relative metabolic activity)” value is given as 35.9 ± 16.7%. The “Congo Red Binding (cell wall hydrophobicity)” value (“Congo Red Binding” for short) in data set [2] worked out at 85.0 ± 2.4%. Moreover, the “Crystal Violet uptake (cell membrane permeability)” value (“Crystal Violet uptake” below) in data set [3] was 61.9 ± 5.7%.

With `O=P(O)(O)C(O)(Cc1cccnc1)P(=O)(O)O` [RSD, Risedronate], in data set [4] (10 mL SBF), the “sorption on HA” value was “approximately 50%”. Moreover, the “urinary excretion 24 h after the first dose” value (shortened to “urinary excretion 24 h”) in [5] is reported as 65%. Further, in data set [6], the bioavailability is recorded as 0.62%. Besides, the “growth of L. paracasei (OD600 growth curve), in words” value in data set [7] was “initial fast cell growth was followed by a rapid decrease in cell density”.

Regarding `Cc1cc(C)nc(NC(P(=O)(O)O)P(=O)(O)O)c1` [BP5, (4,6-dimethyl-2-pyridinyl)amino-methylene-1,1-bisphosphonic acid], in [4], the “affinity for HA (sorption), comparison in words” value (from here on “affinity for HA (sorption)”) is given as “lower affinity”. Further, in [3], the “change in membrane permeability in comparison with RSD” value (shortened to “change in membrane permeability”) is listed as “significant decrease”.

Turning to `Cc1ccnc(NC(P(=O)(O)O)P(=O)(O)O)c1` [BP3, (4-methyl-2-pyridinyl)aminomethylene-1,1-bisphosphonic acid], the “change in membrane permeability” value in data set [3] is “significant decrease”.

On to `O=P(O)(O)C(Nc1nc2ccccc2s1)P(=O)(O)O` [BP12, N-(1,3-benzothiazol-2-yl)amino-methylene-1,1-bisphosphonic acid], for which, in data set [4], the “affinity for HA (sorption)” value was “lower affinity for HA compared to RSD and BP1”. Also, the “sorption and desorption on polymer-ceramic materials” value (shortened to “sorption and desorption”) in [8] was “high sorption levels on polymer-ceramic materials, followed by extensive desorption”.

Consider `O=P(O)(O)C(Nc1cccnc1Cl)P(=O)(O)O` [BP10], for which the “Congo Red Binding” value in [2] was 86.4 ± 1.7%. Moreover, the “Crystal Violet uptake” value in data set [3] is recorded as 60.6 ± 8.7%.

Take `O=P(O)(O)C(Nc1ccc(Br)cn1)P(=O)(O)O` [BP7, (5-bromo-2-pyridinyl)amino-methylene-1,1-bisphosphonic acid]: the “affinity for HA (sorption)” value in data set [4] is reported as “slightly higher affinity for HA than RSD”. Also, the “drug concentration in the acceptor plate relative to RSD” value in data set [9] is “over twice as high as RSD”. Also, the “Congo Red Binding” value in data set [2] amounted to 45.0 ± 5.8%. In addition, in [3], the “change in membrane permeability” value is recorded as “significant decrease” and the “Crystal Violet uptake” value turned out to be 30.6 ± 6.0%.

As to `O=P(O)(O)C(Nc1ccc(I)cn1)P(=O)(O)O` [BP6, (5-iodo-2-pyridinyl)amino-methylene-1,1-bisphosphonic acid], the “affinity for HA (sorption)” value in data set [4] was “slightly higher affinity for HA than RSD”.

`Cc1cccnc1NC(P(=O)(O)O)P(=O)(O)O` [BP2, (3-methyl-2-pyridinyl)aminomethylene-1,1-bisphosphonic acid]: the “affinity for HA (sorption)” value in data set [4] was “lower affinity”. In data set [9], the “drug concentration in the acceptor plate relative to RSD” value is listed as “over twice as high as RSD” and the “PAMPA permeability, comparison in words” value is given as “higher permeability than the other two compounds”. For the same compound, the “sorption and desorption” value in data set [8] is “high sorption levels on polymer-ceramic materials, followed by extensive desorption”. Further, the “AlamarBlue Reduction (relative metabolic activity)” value in data set [1] is given as “approximately 154.0%”.

Take `Cc1ccc(NC(P(=O)(O)O)P(=O)(O)O)nc1` [BP4, (5-methyl-2-pyridinyl)aminomethylene-1,1-bisphosphonic acid]: in [9], the “drug concentration in the acceptor plate relative to RSD” value is listed as “over twice as high as RSD” and the “PAMPA permeability, comparison in words” value is listed as “higher permeability than the other two compounds”. The “AlamarBlue Reduction (relative metabolic activity)” value in [1] was “approximately 154.0%”. Moreover, the “Congo Red Binding” value in data set [2] is given as 89.3 ± 3.5%. Also, in data set [3], the “Crystal Violet uptake” value came to 62.7 ± 8.4%.

On to `O=P(O)(O)C(Nc1ccccn1)P(=O)(O)O` [BP1, 2-pyridinylaminomethylene-1,1-bisphosphonic acid], for which the “affinity for HA (sorption)” value in data set [4] was “slightly higher affinity for HA than RSD”. Further, the “sorption and desorption” value in data set [8] is on record as “high sorption levels on polymer-ceramic materials, followed by extensive desorption”. Besides, the “AlamarBlue Reduction (relative metabolic activity)” value in [1] is “approximately 154.0%”. In addition, in [3], the “change in membrane permeability” value is recorded as “significant decrease”.

Turning to `O=P(O)(O)C(Nc1ccc(Cl)cn1)P(=O)(O)O` [BP8, (5-chloro-2-pyridinyl)amino-methylene-1,1-bisphosphonic acid], the “affinity for HA (sorption)” value in data set [4] was “stronger affinity for HA than RSD”. In [9], the “drug concentration in the acceptor plate relative to RSD” value is on record as “over twice as high as RSD” and the “PAMPA permeability, comparison in words” value is given as “higher than twice as much as BP9 permeability; also recorded: highest permeability among all analyzed BPs”. Besides, the “Congo Red Binding” value in data set [2] is given as 82.1 ± 1.7%.

For the compound `O=P(O)(O)C(Nc1cccc(O)n1)P(=O)(O)O` [BP11, (6-hydroksy-2-pyridinyl)amino-methylene-1,1-bisphosphonic acid], in data set [4], the “affinity for HA (sorption)” value is “highest sorption”. Also, the “PAMPA permeability, comparison in words” value in data set [9] is given as “highest permeability among all analyzed BPs”. Moreover, the “AlamarBlue Reduction (relative metabolic activity)” value in [1] is given as 60.4 ± 3.4%. Moreover, in [2], the “Congo Red Binding” value came to 35.2 ± 6.1%. Further, in data set [3], the “change in membrane permeability” value is “significant decrease” and the “Crystal Violet uptake” value is listed as 30.9 ± 6.4%.

Turning to `O=P(O)(O)C(Cl)(Cl)P(=O)(O)O` [clodronate], the “urinary excretion 24 h” value in data set [5] is recorded as 73%.

For the compound `O=P(O)(O)C(O)(Cn1ccnc1)P(=O)(O)O` [Zoledronate, zoledronic acid], the “permeability Pe” value in data set [10] is “Not detected”. In addition, in [5], the “urinary excretion 24 h” value is 38%. In addition, the “apparent permeability coefficient Papp” value with Caco-2 cell monolayer was 2.72 ± 0.868 (× 10^−6) cm s^−1.

The term bioavailability denotes dose-corrected exposure relative to a reference, in per cent.

Values taken from article PMC11387443, “Determination of bisphosphonate properties in terms of bioavailability, bone affinity, and cytotoxicity” (Pharmacological Reports, 2024).
